Data published in PMC6246635 (Frontiers in Physiology, 2018).

How the values were obtained:
[1] = design: method as in Koyani et al., 2017; Lee et al., 2016; He et al., 2009; details: in vitro studies; ref Koyani et al., 2017; Lee et al., 2016; He et al., 2009; cited from earlier work
CaMKII = assay: Western blot pCaMKII (T286); format: cell-based, murine; details: HL-1 cells
Protocol: (§1) HL-1 cells (a murine cardiomyocyte cell line, Sigma-Aldrich, Vienna, Austria) were cultured in fibronectin (0.5% [w/v])/gelatin (0.02% [w/v]) coated flasks and maintained in Claycomb medium (Sigma-Aldrich) ([Claycomb et al., 1998]) containing 10% (v/v) fetal bovine serum (FBS, Thermo Fisher Scientific, IL, United States), 0.1 mM norepinephrine, 2 mM L-glutamine, 100 IU/ml penicillin and 100 μg/ml streptomycin (Sigma-Aldrich), and kept at 37°C under 5% CO2, as previously described ([Scheruebel et al., 2014]).
(§2) HL-1 cells or mouse left ventricle (LV) were lysed in ice-cold lysis buffer (containing in mM: HEPES 50, NaCl 150, EDTA 1, Na4P2O7 10, Na3VO4 2, NaF 10, 1% [v/v] Triton X-100, 10% [v/v] glycerol, pH 7.4, Sigma-Aldrich) containing a Protease Phosphatase Inhibitor Cocktail (Thermo Fisher Scientific). Pellets were separated by centrifugation at 13,000 rpm (4°C, 10 min). Protein estimation of whole cell was performed using BCA protein assay kit (Thermo Fisher Scientific). Whole cell protein lysates (50 μg) were added to 10 μl of NuPAGE LDS sample buffer (Invitrogen) containing 2 μl of NuPAGE sample reducing agent (Invitrogen). After heating for 10 min at 70°C, proteins were separated by electrophoresis on NuPAGE 4–12% Bis-Tris gel (Invitrogen) and transferred to nitrocellulose membranes (Invitrogen, 0.2 μm) ([Jain et al., 2015]). Membranes were blocked with 5% (w/v) non-fat milk in Tris-buffered saline containing Tween 20 (TBST, 25°C, 2 h) and incubated with primary antibodies overnight at 4°C. The following primary antibodies (diluted in 5% [w/v] BSA-TBST) were used: phospho-CaMKII (pCaMKII, T286, 1:1000, Abcam, ab32678), phospho-PLB (pPLB, T17, 1:5000, Badrilla, A010-13), DPP8 (1:500, Santa Cruz, sc-376399), DPP9 (1:500, Santa Cruz, sc-271634), CaMKII (1:500, Santa Cruz, sc-9035), and PLB (1:2000, Thermo Fisher Scientific, MA3-922). After washing, the membranes were incubated with HRP-conjugated goat anti-mouse IgG (1:10,000, Cell Signaling, 7076) or goat anti-rabbit IgG (1:10,000, Cell Signaling, 7074) (25°C, 2 h). Immunoreactive bands were visualized using Immobilon Western Chemiluminescent HRP substrate (Merck Millipore, Vienna, Austria) and developed by Bio-Rad ChemiDoc MP Imaging System. For normalization, membranes were stripped with stripping buffer (58.4 g/l NaCl, 7.5 g/l glycine, pH 2.15), blocked and incubated with a primary antibody against glyceraldehyde 3-phosphate dehydrogenase (GAPDH, 1:1000, Santa Cruz, sc-25778). Densitometric evaluation of immunoreactive bands was performed using Image Lab 4.1 software.
(§3) HL-1 cells were transfected with siRNAs (four different constructs) specific for DPP8 or DPP9 (40 nM each, Qiagen), or scrambled negative control siRNA (40 nM si-scr; Allstars negative control siRNA, Qiagen) ([Koyani et al., 2014]). The siRNA transfection was performed using Lipofectamine 3000 (Invitrogen) according to the supplier’s manual. Briefly, HL-1 (50% confluent) were transfected with 1 ml medium (composition of medium is given above, without FBS and antibiotics) containing 2 μl of Lipofectamine 3000 and the respective siRNA for 6 h at 37°C. Transfection medium was replaced with medium (containing FBS and antibiotics) and cells were grown for another 24 h. The mRNA expression levels of silenced genes were measured using qPCR (see above).

HL-1 cardiomyocytes = assay: fluorescence microscopy of fluorescamine adduct uptake; format: cell-based, murine; details: HL-1 cells, drug-fluorescamine 2–2 μM
Protocol: as §1, with “2014]). […] Fluorescence images were captured at excitation/emission wavelengths of 390/470 nm.” for “2014]).”

PKC [2] = assay: PKC activity assay in HL-1 cells; format: cell-based, murine
Protocol: as §1, §3
Estimation of active PKC was performed using a PKC kinase activity kit (ADI-EKS-420A, Enzo Life Sciences, NY, United States) according to the manufacturer’s protocol.

[3] = design: method as in Green et al., 2015; details: TECOS trial, T2DM patients; ref Green et al., 2015; cited from earlier work
PKC [4] = tested on: PKC; design: method as in Hasegawa et al., 2016; details: human endothelial cells; ref Hasegawa et al., 2016; cited from earlier work
PLB = assay: Western blot pPLB (T17); format: cell-based, murine; details: HL-1 cells
Protocol: as §1, §2, §3

[5] = tested on: mouse ventricular cardiomyocytes; assay: Ca2+ transient (CaT) measurement; format: cell-based; details: 2 μM, 2 h, 1 Hz
Protocol: (§4) Cardiomyocytes were isolated from adult mice (14–18 weeks old, either sex). The experimental procedure and number of used animals were approved by the ethics committee of the Federal Ministry of Science, Research and Economy of the Republic of Austria (BMWF-66.010/0038-V/3b/2018). Mice were euthanized (40 mg/kg ketamine and 10 mg/kg xylazine), hearts were quickly removed and cardiomyocytes were isolated as previously described ([Ackers-Johnson et al., 2016]) using collagenase 2 and 4 (Worthington Biochemical Corporation, NJ, United States). After isolation cardiomyocytes were kept in standard external solution (containing in mM: NaCl 137, KCl 5.4, CaCl2 1.8, MgCl2 1.1, NaHCO3 2.2, NaH2PO4 0.4, HEPES/Na^+ 10, D(+)-glucose 5.6, pH 7.4 adjusted with NaOH). All experiments were performed on the day of isolation.
CaT was assessed by field stimulation (platinum electrode distance: 1 cm; pulse duration: 5 ms; suprathreshold pulse amplitude: 4 V/cm) at a frequency of 1 Hz using a video-based sarcomere length detection system (IonOptix Corporation, MA, United States) at 37°C. Fluorescence intensities were measured at 340 and 380 nm of excitation and at 510 nm of emission wavelengths using a dual excitation light source. The F340/F380 ratio was used as an index of cytosolic Ca^2+ concentration and to calculate CaT relaxation tau (τCaT). Data were analyzed using Clampfit 10.2 (Molecular Devices) and LabChart 7.0 (peak analysis module, ADInstruments Ltd., Oxford, United Kingdom).

[6] = tested on: mouse ventricular cardiomyocytes; assay: patch clamp action potential recording; format: cell-based; details: 2 μM, 5 min superfusion, 1 Hz
Protocol: as §4
Action potentials (APs) were recorded in the whole cell configuration of the patch clamp technique using Axopatch 200B amplifier (Molecular Devices, CA, United States) and the A/D – D/A converters Digidata 1322A (Molecular Devices). […] Ten consecutive APs were analyzed using LabChart 7.0 (Cardiac action potential analysis module, ADInstruments Ltd., Oxford, United Kingdom).

DPP8 = tested on: DPP8; design: method as in Lankas et al., 2005; details: ref Lankas et al., 2005; cited from earlier work
DPP9 = tested on: DPP9; design: method as in Lankas et al., 2005; details: ref Lankas et al., 2005; cited from earlier work
CaMKII and PLB = assay: Western blot total CaMKII and PLB expression; format: cell-based, murine; details: HL-1 cells, 2 μM, time course
Protocol: as §1
HL-1 cells or mouse left ventricle (LV) were lysed in ice-cold lysis buffer (containing in mM: HEPES 50, NaCl 150, EDTA 1, Na4P2O7 10, Na3VO4 2, NaF 10, 1% [v/v] Triton X-100, 10% [v/v] glycerol, pH 7.4, Sigma-Aldrich) containing a Protease Phosphatase Inhibitor Cocktail (Thermo Fisher Scientific). Pellets were separated by centrifugation at 13,000 rpm (4°C, 10 min). Protein estimation of whole cell was performed using BCA protein assay kit (Thermo Fisher Scientific). Whole cell protein lysates (50 μg) were added to 10 μl of NuPAGE LDS sample buffer (Invitrogen) containing 2 μl of NuPAGE sample reducing agent (Invitrogen). After heating for 10 min at 70°C, proteins were separated by electrophoresis on NuPAGE 4–12% Bis-Tris gel (Invitrogen) and transferred to nitrocellulose membranes (Invitrogen, 0.2 μm) ([Jain et al., 2015]). […]

[7] = plasma Cmax after single dose; format: in vivo; details: human, 5 mg single dose, equivalent of 24 ng/ml (Onglyza, 2016), read-out: plasma Cmax, molar equivalent
[8] = design: method as in Onglyza, 2016; details: 5 mg single dose; ref Onglyza, 2016; cited from earlier work
PKC [9] = tested on: PKC; design: method as in Dai et al., 2014; details: THP-1 macrophages; ref Dai et al., 2014; cited from earlier work
[10] = design: method as in Udenfriend et al., 1972; details: unbound, aqueous solution; ref Udenfriend et al., 1972; cited from earlier work

N#C[C@@H]1CCCN1C(=O)CNC12CC3CC(CC(O)(C3)C1)C2 [vildagliptin]
membrane permeability [1]: significant membrane permeability

N[C@@H](CC(=O)N1CCn2c(nnc2C(F)(F)F)C1)Cc1cc(F)c(F)cc1F [sitagliptin]
effect on pCaMKII expression, time course (CaMKII; 2 μM): failed to inhibit
effect on CaMKII phosphorylation, concentration-dependent (CaMKII; up to 10 μM, 5 min): no effect
cellular uptake and localization (fluorescence) (HL-1 cardiomyocytes): internalized by cardiomyocytes and localizes in the cytosol
effect on intracellular PKC activity (PKC [2]; time course (2 μM) and concentration series (10 min)): no effect
effect on the hospitalization of HF [3]: did not show any effect
effect on PKC activity (PKC [4]): ineffective
effect on PLB phosphorylation levels (PLB; time course (2 μM) and concentration series (30 min)): neither time- (Figure 2F) nor concentration-dependent experiments (Figure 2H) showed an effect
membrane permeability [1]: significant membrane permeability
CaT relaxation (reciprocal of τCaT) [5]: ineffective
action potential duration (APD, 90% repolarization) [6]: not

CC[C@@H](C)[C@H](N)C(=O)N1Cc2ccccc2C1.Cl [TC-E 5007]
reduced CaMKII phosphorylation (T286), time from which observed (CaMKII; 2 μM): ≥ 30 min
reduced PKC activity, time from which observed (PKC [2]; 2 μM): ≥ 10 min
reduced pPLB (T17), time from which observed (PLB; 2 μM): ≥ 60 min
CaT relaxation (reciprocal of τCaT) [5]: impaired cardiac relaxation
total CaMKII and PLB protein levels (CaMKII and PLB): did not affect

N#C[C@@H]1C[C@@H]2C[C@@H]2N1C(=O)[C@@H](N)C12CC3CC(CC(O)(C3)C1)C2 [saxagliptin]
reduced CaMKII phosphorylation (T286), time from which observed (CaMKII; 2 μM): ≥ 2.5 min
pCaMKII expression in DPP8 knocked down cardiomyocytes (CaMKII; 2 μM, 5 min, si-DPP8): effectively inhibited
inhibition of CaMKII phosphorylation, concentration from which observed (CaMKII; 5 min): ≥ 200 nM
Cmax [7]: ~76 nM
reduced PKC activity, time from which observed (PKC [2]; 2 μM): ≥ 2.5 min
efficacy on PKC activity in DPP8/DPP9 silenced cardiomyocytes (PKC [2]; 2 μM, 10 min): significantly abolished in DPP9 (but not DPP8) silenced cardiomyocytes
reduced PKC activity, concentration from which observed (PKC [2]; 10 min): ≥ 1 µM
plasma Cmax [8]: 24 ng/mL
reduced pPLB (T17), time from which observed (PLB; 2 μM): ≥ 15 min
efficacy on pPLB expression in DPP8/DPP9 silenced cells (PLB; 2 μM, 30 min): abolished in DPP9 (but not DPP8) silenced cells
reduced pPLB expression, concentration from which observed (PLB; 30 min): ≥ 200 nM
membrane permeability [1]: significant membrane permeability
oxidized low-density lipoprotein-induced pPKC levels (PKC [9]): inhibited
CaT relaxation (reciprocal of τCaT) [5]: impaired cardiac relaxation
action potential duration (APD, 90% repolarization) [6]: prolongation of APD

O=C1OC2(OC=C(c3ccccc3)C2=O)c2ccccc21 (stereo not shown) [fluorescamine]
half-life [10]: 5 to 10 s
